ChEMBL document CHEMBL1201862, “PubChem BioAssay data set” (2004)
“And” between values parts separate entries of the source, which are not always exact repeats. Equal entries are not always repeated.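 Following 48 hours of exposure in 96-well plates, responses at five concentrations were used to interpolate endpoints linearly. GI50 marks 50% less growth.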 The source made the active and inactive calls. Rule as the data show it: active = GI50 up to about 1.1 µM and inactive = higher. Starred links: 1 amine or outer side, 2 acyl side, 3 side chain; linkers in the order of their positions; H or OH if unused. Positions of bridges follow the written chain, without caps; N, C: chain ends. Non-standard residues stand in square brackets, D forms with d. Residues, ends and D or L forms follow the SMILES beside them. Chains are numbered I, II in the order given. Actinocin(1to9) = Cc1c2oc3c(C)ccc(C(=O)[*:2])c3nc-2c(C(=O)[*:1])c(N)c1=O; NMeV = CN[CH](C(=O)O)C(C)C; Sar = CNCC(=O)O

What was measured:
Assay in all cases: NCI tumour cell line growth inhibition, 48 h
HOP-62 = system: HOP-62
SF-539 = system: SF-539
UO-31 = system: UO-31
K562 = system: K562
RPMI-8226 = system: RPMI-8226
MOLT-4 = system: MOLT-4
HCT-116 = system: HCT-116
RXF 393 = system: RXF 393
NCI/ADR-RES = system: NCI/ADR-RES
HT-29 = system: HT-29
SK-MEL-28 = system: SK-MEL-28
OVCAR-8 = system: OVCAR-8
NCI-H522 = system: NCI-H522
COLO 205 = system: COLO 205
CCRF-CEM = system: CCRF-CEM
IGROV-1 = system: IGROV-1
SN12C = system: SN12C
SF-295 = system: SF-295

Compound | GI50 (HOP-62) | GI50 (SF-539) | GI50 (UO-31) | GI50 (K562) | GI50 (RPMI-8226) | GI50 (MOLT-4) | GI50 (HCT-116) | GI50 (RXF 393) | GI50 (NCI/ADR-RES) | GI50 (HT-29) | GI50 (SK-MEL-28) | GI50 (OVCAR-8) | GI50 (NCI-H522) | GI50 (COLO 205) | GI50 (CCRF-CEM) | GI50 (IGROV-1) | GI50 (SN12C) | GI50 (SF-295)
Cc1cc(-c2cc(C)c(O)c(C(C)(C)C)c2)cc(C(C)(C)C)c1O | 17.8 µM (inactive) and 17.3 µM (inactive) | 15 µM (inactive) and 18.5 µM (inactive) | 11 µM (inactive) and 18.1 µM (inactive) | 9.25 µM (inactive) and 7.69 µM (inactive) | 18.9 µM (inactive) and 12.9 µM (inactive) | 5.79 µM (inactive) and 5.86 µM (inactive) | 6.21 µM (inactive) and 10.9 µM (inactive) | 13.4 µM (inactive) and 11 µM (inactive) | 11 µM (inactive) and 14 µM (inactive) | 3.24 µM (inactive) and 3.82 µM (inactive) | 16.7 µM (inactive) and 12 µM (inactive) | 15.4 µM (inactive) and 13.4 µM (inactive) | 10.5 µM (inactive) and 12.3 µM (inactive) | 11.1 µM (inactive) and 13.6 µM (inactive) | 5.69 µM (inactive) and 5.58 µM (inactive) | 20.8 µM (inactive) and 12 µM (inactive) | 13.4 µM (inactive) and 12.3 µM (inactive) | 9.82 µM (inactive) and 11.1 µM (inactive)
COc1c(C(CC(C)C)OC(C)=O)ccc2c1C(=O)OCc1cc(C)cc(O)c1O2 (configuration not stated) | 18.7 µM (inactive) | 18.2 µM (inactive) | 6.95 µM (inactive) | > 100 µM (inactive) | > 100 µM (inactive) | 12.8 µM (inactive) | 12.6 µM (inactive) | 18.2 µM (inactive) | 12.5 µM (inactive) | 17.8 µM (inactive) | 15.8 µM (inactive) | 16.7 µM (inactive) | 13.2 µM (inactive) | 17.6 µM (inactive) | > 100 µM (inactive) | 16.6 µM (inactive) | 14.2 µM (inactive) | 14.4 µM (inactive)
CCCCCCCCCC1CC(=O)NCC(=O)NC(C(C)C)C(=O)NC(CC(C)C)C(=O)NC(C)C(=O)NC(C(C)C)C(=O)O1 (configuration not stated) | 22.5 µM (inactive) | 19.1 µM (inactive) | > 100 µM (inactive) | 16.8 µM (inactive) | 17.1 µM (inactive) | 13.3 µM (inactive) | 14.8 µM (inactive) | 35.3 µM (inactive) | > 100 µM (inactive) | 5.9 µM (inactive) | 15.2 µM (inactive) | 6.03 µM (inactive) | 14 µM (inactive) | 50.4 µM (inactive) | 15.7 µM (inactive) | 31.9 µM (inactive) | 19.1 µM (inactive) | 13.3 µM (inactive)
S=C1SCN(Cc2ccco2)CN1c1ccc(Br)cc1 | 23.8 µM (inactive) | 14.5 µM (inactive) | 22.9 µM (inactive) | 2.45 µM (inactive) | 15.4 µM (inactive) | 17.4 µM (inactive) | 12.2 µM (inactive) | 30.6 µM (inactive) | 18.3 µM (inactive) | 13.8 µM (inactive) | 17.8 µM (inactive) | 23.3 µM (inactive) | 10.3 µM (inactive) | 15.8 µM (inactive) | 16.4 µM (inactive) | 16.4 µM (inactive) | 23.4 µM (inactive) | 6.98 µM (inactive)
Cc1cc(C)nc(NS(=O)(=O)c2ccc(NC(=O)c3ccc4nc5ccccc5c(Nc5ccc(S(=O)(=O)N=C(N)N)cc5)c4c3)cc2)n1 | > 100 µM (inactive) | > 100 µM (inactive) | > 100 µM (inactive) | 46.6 µM (inactive) | > 100 µM (inactive) | > 100 µM (inactive) | > 100 µM (inactive) | > 100 µM (inactive) | > 100 µM (inactive) | > 100 µM (inactive) | > 100 µM (inactive) | > 100 µM (inactive) | > 100 µM (inactive) | > 100 µM (inactive) | 68.5 µM (inactive) | > 100 µM (inactive) | > 100 µM (inactive) | > 100 µM (inactive)
CC(CN(C)C)C(C#N)(c1ccccc1)c1ccccc1 (configuration not stated) | > 100 µM (inactive) | > 100 µM (inactive) | > 100 µM (inactive) | 65.2 µM (inactive) | 78.2 µM (inactive) | > 100 µM (inactive) | > 100 µM (inactive) | > 100 µM (inactive) | > 100 µM (inactive) | 63.7 µM (inactive) | 89.1 µM (inactive) | > 100 µM (inactive) | > 100 µM (inactive) | 82.6 µM (inactive) | 49.1 µM (inactive) | > 100 µM (inactive) | > 100 µM (inactive) | > 100 µM (inactive)
CNC(=O)N(CCC#N)CCCN(C(=O)NC)c1ccccc1 | > 100 µM (inactive) | > 100 µM (inactive) | > 100 µM (inactive) | > 100 µM (inactive) | > 100 µM (inactive) | > 100 µM (inactive) | > 100 µM (inactive) | > 100 µM (inactive) | > 100 µM (inactive) | > 100 µM (inactive) | > 100 µM (inactive) | > 100 µM (inactive) | > 100 µM (inactive) | > 100 µM (inactive) | > 100 µM (inactive) | > 100 µM (inactive) | > 100 µM (inactive) | > 100 µM (inactive)
CC1=C(C)CC(C#N)(C#N)C(C#N)(C#N)C1 | > 10 µM (inactive) | > 10 µM (inactive) | > 10 µM (inactive) | 2.2 µM (inactive) | 2.18 µM (inactive) | 2.51 µM (inactive) | > 4.91 µM (inactive) | > 4.39 µM (inactive) | > 10 µM (inactive) | > 5.78 µM (inactive) | > 10 µM (inactive) | > 5.45 µM (inactive) | 1 µM (active) | 4.21 µM (inactive) | 1.45 µM (inactive) | > 3.83 µM (inactive) | > 9.12 µM (inactive) | > 10 µM (inactive)
COc1ccc(C(O)CC(O)(C(F)(F)F)C(F)(F)F)cc1 (configuration not stated) | 26.4 µM (inactive) | 21.7 µM (inactive) | 39.8 µM (inactive) | 25.6 µM (inactive) | 14.4 µM (inactive) | 23.9 µM (inactive) | 16.6 µM (inactive) | 20.1 µM (inactive) | 19.4 µM (inactive) | 28.8 µM (inactive) | 62.7 µM (inactive) | 23 µM (inactive) | 32.1 µM (inactive) | 19.1 µM (inactive) | 20.8 µM (inactive) | 26.8 µM (inactive) | 24.8 µM (inactive) | 29.6 µM (inactive)
Fc1ccc(F)c(/C=N/C23CC4CC(CC(C4)C2)C3)c1 | > 10 µM (inactive) | > 10 µM (inactive) | > 10 µM (inactive) | 4.44 µM (inactive) | > 10 µM (inactive) | > 10 µM (inactive) | > 10 µM (inactive) | > 10 µM (inactive) | > 10 µM (inactive) | > 10 µM (inactive) | > 10 µM (inactive) | > 10 µM (inactive) | > 10 µM (inactive) | > 10 µM (inactive) | 5.13 µM (inactive) | > 10 µM (inactive) | > 10 µM (inactive) | > 10 µM (inactive)
Nc1cccc(CCN2CCN(CCCc3ccccc3)CC2)c1 | 36.5 µM (inactive) | 22.2 µM (inactive) | 26.7 µM (inactive) | 12.9 µM (inactive) | 33.2 µM (inactive) | 30.5 µM (inactive) | 17.6 µM (inactive) | 21.2 µM (inactive) | > 100 µM (inactive) | 13.7 µM (inactive) | 27.5 µM (inactive) | 22.6 µM (inactive) | 16.5 µM (inactive) | 19.5 µM (inactive) | 25.8 µM (inactive) | 37.3 µM (inactive) | 95.3 µM (inactive) | 24.8 µM (inactive)
O=C1CC(n2cccc2)c2c(Br)sc(Br)c21 (configuration not stated) | 22.1 µM (inactive) | 17.6 µM (inactive) | 2.56 µM (inactive) | 14.5 µM (inactive) | 8.24 µM (inactive) | 8.93 µM (inactive) | 15.3 µM (inactive) | 20.6 µM (inactive) | 26.1 µM (inactive) | 16.6 µM (inactive) | 20.3 µM (inactive) | 15.2 µM (inactive) | 1.49 µM (inactive) | 16.9 µM (inactive) | 6.35 µM (inactive) | 16.2 µM (inactive) | 17.3 µM (inactive) | 23.3 µM (inactive)
O=C(NCCCCNCCCNC(=O)OCc1ccccc1)OCc1ccccc1 | 27.8 µM (inactive) | 21.3 µM (inactive) | 24.2 µM (inactive) | 30.8 µM (inactive) | 39 µM (inactive) | 26.9 µM (inactive) | 24.5 µM (inactive) | 16.5 µM (inactive) | 36.4 µM (inactive) | 18 µM (inactive) | 18.4 µM (inactive) | 26.8 µM (inactive) | 21.2 µM (inactive) | 16.9 µM (inactive) | 31 µM (inactive) | 22.1 µM (inactive) | 85.3 µM (inactive) | 21.8 µM (inactive)
CCC(C)C1NC(=O)C(NC(=O)c2c3nc4c(C(=O)NC5C(=O)NC(C(C)CC)C(=O)N6CCCC6C(=O)N(C)CC(=O)N(C)C(C(C)C)C(=O)OC5C)ccc(C)c4oc-3c(C)c(=O)c2N)C(C)OC(=O)C(C(C)C)N(C)C(=O)CN(C)C(=O)C2CCCN2C1=O (configuration not stated) (I: TIP[Sar][NMeV] / II: TIP[Sar][NMeV]; ester I:1-I:C, II:1-II:C; linker I:N-II:N via Actinocin(1to9); configuration not given here) | < 0.0001 µM (active) | < 0.0001 µM (active) | 0.0204 µM (active) | < 0.0001 µM (active) | 0.000143 µM (active) | < 0.0001 µM (active) | < 0.0001 µM (active) | 0.00394 µM (active) | 0.296 µM (active) | < 0.0001 µM (active) | 0.00011 µM (active) | 0.000262 µM (active) | < 0.0001 µM (active) | < 0.0001 µM (active) | < 0.0001 µM (active) | < 0.0001 µM (active) | 0.000282 µM (active) | 0.000477 µM (active)
